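Following 48 hours of exposure in 96-well plates, responses at five concentrations were used to interpolate endpoints linearly. The concentration for full growth arrest is given as TGI.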
Tests used:
Experiment in all cases: inhibition of tumour cell growth, NCI panel, 48 h
786-0 renal = tested on: 786-0 renal
A498 renal = tested on: A498 renal
A549 NSCLC = tested on: A549 NSCLC
ACHN renal = tested on: ACHN renal
BT-549 breast = tested on: BT-549 breast
CAKI-1 renal = tested on: CAKI-1 renal
COLO 205 colon = tested on: COLO 205 colon
DU-145 prostate = tested on: DU-145 prostate
EKVX NSCLC = tested on: EKVX NSCLC
HCC-2998 colon = tested on: HCC-2998 colon
HCT-116 colon = tested on: HCT-116 colon
HCT-15 colon = tested on: HCT-15 colon
HL-60(TB) leukemia = tested on: HL-60(TB) leukemia
HOP-62 NSCLC = tested on: HOP-62 NSCLC
HOP-92 NSCLC = tested on: HOP-92 NSCLC
HS 578T breast = tested on: HS 578T breast
HT29 colon = tested on: HT29 colon
IGROV1 ovarian = tested on: IGROV1 ovarian
K-562 leukemia = tested on: K-562 leukemia
KM12 colon = tested on: KM12 colon
LOX IMVI melanoma = tested on: LOX IMVI melanoma
M14 melanoma = tested on: M14 melanoma
MALME-3M melanoma = tested on: MALME-3M melanoma
MCF7 breast = tested on: MCF7 breast
MDA-MB-231 breast = tested on: MDA-MB-231 breast
MDA-MB-435 = tested on: MDA-MB-435
MDA-N = tested on: MDA-N
MOLT-4 leukemia = tested on: MOLT-4 leukemia
NCI-H226 lung = tested on: NCI-H226 lung
NCI-H23 lung = tested on: NCI-H23 lung
NCI-H460 lung = tested on: NCI-H460 lung
NCI-H522 lung = tested on: NCI-H522 lung
NCI/ADR-RES ovarian = tested on: NCI/ADR-RES ovarian
OVCAR-3 ovarian = tested on: OVCAR-3 ovarian
OVCAR-4 ovarian = tested on: OVCAR-4 ovarian
OVCAR-5 ovarian = tested on: OVCAR-5 ovarian
OVCAR-8 ovarian = tested on: OVCAR-8 ovarian
PC-3 prostate = tested on: PC-3 prostate
RPMI-8226 leukemia = tested on: RPMI-8226 leukemia
RXF 393 renal = tested on: RXF 393 renal
SF-268 CNS = tested on: SF-268 CNS
SF-295 CNS = tested on: SF-295 CNS
SF-539 CNS = tested on: SF-539 CNS
SK-MEL-2 melanoma = tested on: SK-MEL-2 melanoma
SK-MEL-28 melanoma = tested on: SK-MEL-28 melanoma
SK-MEL-5 melanoma = tested on: SK-MEL-5 melanoma
SN12C renal = tested on: SN12C renal
SNB-19 CNS = tested on: SNB-19 CNS
SR leukemia = tested on: SR leukemia
TK-10 renal = tested on: TK-10 renal
U251 CNS = tested on: U251 CNS
UACC-257 melanoma = tested on: UACC-257 melanoma
UACC-62 melanoma = tested on: UACC-62 melanoma
UO-31 renal = tested on: UO-31 renal
CCRF-CEM leukemia = tested on: CCRF-CEM leukemia
SK-OV-3 ovarian = tested on: SK-OV-3 ovarian
SW-620 colon = tested on: SW-620 colon

CC(C)N1[C@@H]2CCCC[C@H]2N(C(C)C)P1(=O)C(=O)/C=C/c1ccccc1
TGI (786-0 renal): 3.36 µM
TGI (A498 renal): 16.9 µM
TGI (A549 NSCLC): 12.4 µM
TGI (ACHN renal): 8.62 µM
TGI (BT-549 breast): 14.5 µM
TGI (CAKI-1 renal): 7.31 µM
TGI (COLO 205 colon): 5.05 µM
TGI (DU-145 prostate): 4.94 µM
TGI (EKVX NSCLC): 13.8 µM
TGI (HCC-2998 colon): 5.33 µM
TGI (HCT-116 colon): 3.73 µM
TGI (HCT-15 colon): 4.14 µM
TGI (HL-60(TB) leukemia): 4.84 µM
TGI (HOP-62 NSCLC): 13.7 µM
TGI (HOP-92 NSCLC): 6.53 µM
TGI (HS 578T breast): 4.94 µM
TGI (HT29 colon): 8.03 µM
TGI (IGROV1 ovarian): 4.37 µM
TGI (K-562 leukemia): > 100 µM
TGI (KM12 colon): 10.2 µM
TGI (LOX IMVI melanoma): 4.55 µM
TGI (M14 melanoma): 5.49 µM
TGI (MALME-3M melanoma): 2.33 µM
TGI (MCF7 breast): 59.9 µM
TGI (MDA-MB-231 breast): 8.74 µM
TGI (MDA-MB-435): 3.74 µM
TGI (MDA-N): 3.82 µM
TGI (MOLT-4 leukemia): 16.1 µM
TGI (NCI-H226 lung): 24.6 µM
TGI (NCI-H23 lung): 6.42 µM
TGI (NCI-H460 lung): 10.3 µM
TGI (NCI-H522 lung): 3.26 µM
TGI (NCI/ADR-RES ovarian): 4.81 µM
TGI (OVCAR-3 ovarian): 5.74 µM
TGI (OVCAR-4 ovarian): 3.39 µM
TGI (OVCAR-5 ovarian): 6.66 µM
TGI (OVCAR-8 ovarian): 3.46 µM
TGI (PC-3 prostate): 15.2 µM
TGI (RPMI-8226 leukemia): 9.32 µM
TGI (RXF 393 renal): 3.46 µM
TGI (SF-268 CNS): 7.33 µM
TGI (SF-295 CNS): 23.4 µM
TGI (SF-539 CNS): 6.34 µM
TGI (SK-MEL-2 melanoma): 8.17 µM
TGI (SK-MEL-28 melanoma): 8.87 µM
TGI (SK-MEL-5 melanoma): 3.44 µM
TGI (SN12C renal): 3.96 µM
TGI (SNB-19 CNS): 18.3 µM
TGI (SR leukemia): 8.27 µM
TGI (TK-10 renal): 12.9 µM
TGI (U251 CNS): 16.5 µM
TGI (UACC-257 melanoma): 13.5 µM
TGI (UACC-62 melanoma): 9.02 µM
TGI (UO-31 renal): 3.13 µM

CC(C)c1ccc2nc3ccc(C(=O)NCCN4CCN(c5ccccc5)CC4)cn3c(=O)c2c1
TGI (786-0 renal): > 100 µM
TGI (A498 renal): > 100 µM
TGI (A549 NSCLC): > 100 µM
TGI (BT-549 breast): > 100 µM
TGI (CAKI-1 renal): > 100 µM
TGI (CCRF-CEM leukemia): > 100 µM
TGI (COLO 205 colon): > 100 µM
TGI (DU-145 prostate): > 100 µM
TGI (EKVX NSCLC): > 100 µM
TGI (HCC-2998 colon): > 100 µM
TGI (HCT-116 colon): > 100 µM
TGI (HCT-15 colon): > 100 µM
TGI (HOP-62 NSCLC): > 100 µM
TGI (HS 578T breast): > 100 µM
TGI (HT29 colon): > 100 µM
TGI (IGROV1 ovarian): > 100 µM
TGI (K-562 leukemia): > 100 µM
TGI (KM12 colon): > 100 µM
TGI (M14 melanoma): > 100 µM
TGI (MCF7 breast): > 100 µM
TGI (MDA-MB-231 breast): > 100 µM
TGI (MDA-N): > 100 µM
TGI (NCI-H226 lung): > 100 µM
TGI (NCI-H23 lung): > 100 µM
TGI (NCI-H460 lung): > 100 µM
TGI (NCI-H522 lung): > 100 µM
TGI (NCI/ADR-RES ovarian): > 100 µM
TGI (OVCAR-3 ovarian): > 100 µM
TGI (OVCAR-4 ovarian): > 100 µM
TGI (OVCAR-5 ovarian): > 100 µM
TGI (OVCAR-8 ovarian): > 100 µM
TGI (SF-268 CNS): > 100 µM
TGI (SF-295 CNS): 4.91 µM
TGI (SK-MEL-28 melanoma): > 100 µM
TGI (SK-MEL-5 melanoma): 7.81 µM
TGI (SK-OV-3 ovarian): > 100 µM
TGI (SNB-19 CNS): > 100 µM
TGI (SW-620 colon): > 100 µM
TGI (TK-10 renal): > 100 µM
TGI (U251 CNS): > 100 µM
TGI (UACC-257 melanoma): > 100 µM
TGI (UACC-62 melanoma): > 100 µM
TGI (UO-31 renal): > 100 µM

Source: PubChem BioAssay (NCI)
